Laboratory results: the supplement of paper PMC8882468
± gives the standard deviation of the averaged measurements.

How the values were obtained:
Assay in all cases: CTG-3D luminescence at 96 h relative to day-0 seeding control (ratio to day 0); higher = more growth / less cytotoxicity; PDxO 3D drug screen, 96 h, CTG-3D normalised to day-0 seeding control.
[1] = tested on: HCI-001 (organoid from a triple-negative breast cancer xenograft)
[2] = tested on: HCI-002 (organoid from a triple-negative breast cancer xenograft)
[3] = tested on: HCI-003.E2 (organoid from an ER-positive breast cancer xenograft)
[4] = tested on: HCI-019 (organoid from a triple-negative breast cancer xenograft)
[5] = tested on: HCI-024 (organoid from a breast cancer xenograft)

Cc1cc(Nc2ncc(Cl)c(Nc3ccccc3S(=O)(=O)C(C)C)n2)c(OC(C)C)cc1C1CCNCC1 [ceritinib]
CTG-3D luminescence at 96 h
Settings	12.5 pM	0.00025 µM	0.005 µM	0.1 µM	1 µM	10 µM	100 µM	625 fM
[1], days in culture: 240	1.82	1.14	1.07	1.15	0.858	0.121	-0.00201	1.26
[1], days in culture: 260	2.25	1.05	1.67	1.28	1.21	0.018	-0.00298	1.55
[1], days in culture: 269	1.92	1.77	1.43	1.82	1.23	-0.0266	-0.0412	1.9
[1], days in culture: 327	1.58	1.14	1.9	1.78	1.24	0.164	-0.00344	1.92
[1], days in culture: 346	1.59	1.27	1.16	1.24	1.19	0.45	-0.00215	1.39
[1], days in culture: 364	1.52	1.11	1.4	0.954	1.13	0.315	-0.00387	1.85
[2], days in culture: 62	2.84	2.62	3.08	2.52	2.11	0.00947	-0.00984	3.15
[2], days in culture: 82	3.23	2.64	2.18	2.46	1.76	0.00838	-0.0057	2.72
[2], days in culture: 91	4.25	3.86	3.52	4.11	3.29	0.00341	-0.0215	4.18
[2], days in culture: 191	2.47	2.8	2.59	2.41	2.23	0.00759	-0.00732	2.72
[2], days in culture: 209	2.4	2.59	2.23	2.14	2.03	0.00677	-0.00747	2.35
[2], days in culture: 227	6.1	6.52	5.45	5.99	4.45	-0.223	-0.242	7.25
[4], days in culture: 110	1.94	1.72	1.21	2.24	1.78	0.533	-0.00638	2.49
[4], days in culture: 131	2.4	3	2.64	3.8	2.36	0.0735	-0.00829	3.86
[4], days in culture: 152	2.83	2.4	1.79	1.51	1.37	0.01	-0.00373	2.52
[5], days in culture: 105	1.05	1.3	1.22	1.29	1.11	0.00435	-0.0037	1.39
[5], days in culture: 122	1.49	2.05	1.23	1.88	1.16	0.00674	-0.00377	2.07
[5], days in culture: 163	2.38	2.03	1.59	2.47	1.74	0.107	-0.00554	2.78

[3]
Settings	CTG-3D luminescence at 96 h
12.5 pM	2.16 ± 0.93
0.00025 µM	2.04 ± 0.61
0.005 µM	1.82 ± 0.26
0.1 µM	2.06 ± 0.46
1 µM	2.05 ± 0.53
10 µM	0.388 ± 0.58
100 µM	0.0194 ± 0.046
625 fM	2.21 ± 0.59

O=C(c1ccc(F)c(F)c1Nc1ccc(I)cc1F)N1CC(O)([C@@H]2CCCCN2)C1 [cobimetinib]
CTG-3D luminescence at 96 h
Settings	12.5 pM	0.00025 µM	0.005 µM	0.1 µM	1 µM	10 µM	100 µM	625 fM
[1], days in culture: 240	1.59	1.08	1.09	1.08	1.32	0.812	0.00168	1.41
[1], days in culture: 260	2.44	1.15	1.46	1.28	1.58	1.5	0.00186	1.87
[1], days in culture: 269	1.48	1.58	1.56	1.49	1.26	1.83	-0.00203	1.53
[1], days in culture: 327	1.36	1.44	1.72	1.75	1.43	1.04	0.00317	1.52
[1], days in culture: 346	1.24	1.22	1.07	1.14	1.13	1.22	-7.73e-05	1.11
[1], days in culture: 364	1.35	1.27	1.3	0.986	0.9	0.905	0.000378	1.51
[2], days in culture: 62	2.96	2.54	2.87	1.97	1.32	0.777	-0.0104	3.02
[2], days in culture: 82	3.18	3.07	2.39	1.88	1.72	0.519	-0.0137	3.03
[2], days in culture: 91	3.83	3.46	2.9	2.74	1.55	0.722	-0.0112	3.97
[2], days in culture: 191	2.68	2.52	2.54	1.88	1.67	0.799	-0.00417	2.65
[2], days in culture: 209	2.44	2.32	2.11	1.78	1.43	0.589	-0.00565	2.4
[2], days in culture: 227	5.23	5.25	4.79	4.53	2.78	1.04	-0.0104	5.77
[4], days in culture: 110	1.61	2.17	1.42	1.74	0.92	0.565	-0.00268	2.27
[4], days in culture: 131	2.19	3.62	3.36	3.24	1.65	1.41	-0.00394	3.82
[4], days in culture: 152	3.36	3.14	2.66	1.88	1.11	0.848	-1.56e-05	2.36
[5], days in culture: 105	1.71	1.74	1.38	1.36	0.803	0.316	-0.00552	2.08
[5], days in culture: 122	2.66	2.28	2.13	1.03	0.873	0.979	-0.000547	3.01
[5], days in culture: 163	1.51	2.19	1.89	2.26	1.17	0.872	-0.0079	2.15

[3]
Settings	CTG-3D luminescence at 96 h
12.5 pM	2.11 ± 0.75
0.00025 µM	2.48 ± 0.68
0.005 µM	1.98 ± 0.5
0.1 µM	2.18 ± 0.35
1 µM	1.66 ± 0.39
10 µM	1.64 ± 0.61
100 µM	0.00926 ± 0.011
625 fM	1.93 ± 0.51
